From article PMC4475277 (Chemistry & biology, 2015)

Assays:
[1] = system: bBiDomain (a chimera of bsNOS and redox partner YkuN); assay: bBiDomain single time point bacterial NOS activity inhibition; type: biochemical, Bacillus subtilis; settings: inhibitor 30 µM, NOHA 200 µM, 4 min at 35 °C
[2] = biological target: T1, bsNOS (WT) (Bacillus subtilis, UniProt O34453); settings: read-out: WT - KS; imidazole displacement; ref Wang et al., 2004; cited from earlier work
T1 sequence (O34453 1-363): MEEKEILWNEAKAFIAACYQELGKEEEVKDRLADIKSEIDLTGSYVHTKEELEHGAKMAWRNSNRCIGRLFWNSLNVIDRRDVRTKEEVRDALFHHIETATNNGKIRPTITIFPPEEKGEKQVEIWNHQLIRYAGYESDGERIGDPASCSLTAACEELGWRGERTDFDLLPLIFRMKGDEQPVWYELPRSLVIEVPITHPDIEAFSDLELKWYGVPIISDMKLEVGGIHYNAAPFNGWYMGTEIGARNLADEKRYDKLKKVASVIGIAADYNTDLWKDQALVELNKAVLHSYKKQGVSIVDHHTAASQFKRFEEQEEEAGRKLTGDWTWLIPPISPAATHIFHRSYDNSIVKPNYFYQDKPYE

[3] = biological target: I218V bsNOS (Bacillus subtilis, UniProt O34453, I218V); settings: read-out: I218V - KS; imidazole displacement; ref Wang et al., 2004; cited from earlier work
Chain of I218V bsNOS (O34453 whole entry I218V): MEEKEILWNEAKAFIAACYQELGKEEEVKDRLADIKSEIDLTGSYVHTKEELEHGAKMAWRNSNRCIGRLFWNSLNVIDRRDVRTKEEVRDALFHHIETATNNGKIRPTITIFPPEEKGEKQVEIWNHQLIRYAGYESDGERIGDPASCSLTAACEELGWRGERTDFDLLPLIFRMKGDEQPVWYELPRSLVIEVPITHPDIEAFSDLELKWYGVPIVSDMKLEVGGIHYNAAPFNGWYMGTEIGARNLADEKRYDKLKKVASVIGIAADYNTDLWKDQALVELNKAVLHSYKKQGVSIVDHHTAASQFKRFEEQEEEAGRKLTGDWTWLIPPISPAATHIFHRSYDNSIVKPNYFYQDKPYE

NC(=NCCC[C@H](N)C(=O)O)N[N+](=O)[O-] [L-NNA]
% nitrite (nitrite with inhibitor divided by nitrite without inhibitor) [1]: 40.9 ± 5.3 % nitrite

N=C(N)NCCC[C@H](N)C(=O)O [L-Arg]
Kd [2]: 4.8 ± 0.1 µM
Kd [3]: 2 ± 0.2 µM
